Reference: patent US10344034B2, “Pyrazolopyrimidone or Pyrrolotriazone derivatives, method of preparing same, and pharmaceutical applications thereof” (Shanghai Hengrui Pharmaceutical Co., Ltd., priority 2013, dated 2019)

Key:
[1] = Beagle pharmacokinetics assay; format: in vivo, beagles; settings: for AUC: read-out: Area under curve AUC; for half-life: read-out: Half-life T1/2 (converted); for MRT: read-out: Residence time MRT
Experimental: Test Example 6. Beagle Pharmacokinetics Assay of Example 11 of the Present Invention
Beagles were used as test animals. The plasma concentrations at various times were determined by LC/MS/MS after intragastric administration of the compound of Example 11, and intravenous administration of the compound of Example 11 to beagles. The pharmacokinetic behavior of the present compound in beagles was studied, and the pharmacokinetic features were evaluated.
Eight (8) healthy beagles (half female and half male) were evenly designated into 2 groups. The animals were purchased from SuzhouXishan Zhongke Laboratory Animal Corp. Ltd.
An appropriate amount of sample was weighed, and added with 0.5% CMC-Na to form a 1.0 mg/ml suspension upon ultrasonic treatment;
Appropriate amounts of drugs were weighed, and dissolved with 5 ml DMSO and 5 ml of Tween 80. Saline solution was added to the final volume.
Eight (8) healthy beagles (half female and half male) were evenly designated into 2 groups, and administered by oral gavage or intravenous injection (i.v.) (oral gavage at a dosage of 5 mg/kg with an administration volume of 5 ml/kg, and i.v. at a dosage of 2 mg/kg with an administration volume of 2 ml/kg) after fasting overnight.
1.0 ml of blood was sampled from the foreleg vein before, and 0.25, 0.5, 1, 2, 4, 6, 8, 12, and 24 hours after oral administration, collected in a heparinized test tube, and centrifuged at 3500 rpm for 10 minutes to separate the plasma, which was stored at −20° C. The animals were allowed access to feed 2 hours after administration. Blood was sampled before, and 5 minutes, 0.25, 0.5, 1, 2, 4, 6, 8, 12, and 24 hours after intravenous administration, and treated the same as above. The content of the test compound in the plasma of beagles after administration of the compound by oral gavage and intravenous injection was determined by LC/MS/MS.

[2] = Rabbit pharmacokinetics assay; format: in vivo, New Zealand rabbits; settings: for AUC: read-out: Area under curve AUC; for half-life: read-out: Half-life T1/2 (converted); for MRT: read-out: Residence time MRT
Experimental: Test Example 5. Rabbit Pharmacokinetics Assay of Example 11 of the Present Invention
Rabbits were used as test animals. The plasma concentrations at various times were determined by LC/MS/MS after intragastric administration of the compound of Example 11, and intravenous administration of the compound of Example 11 to rabbits. The pharmacokinetic behavior of the present compound in rabbits was studied, and the pharmacokinetic features were evaluated.
Six (6) healthy New Zealand Rabbits (female) were evenly designated into 2 groups. The animals were purchased from Jie Sijie Corp. Ltd.
An appropriate amount of sample was weighed, and added with 0.5% CMC-Na to form […] suspension upon ultrasonic treatment.
Appropriate amounts of drugs were weighed, and dissolved with 1 ml DMSO and 1 ml of Tween 80. Saline solution was added to the final volume.
Six (6) healthy New Zealand rabbits (female) were evenly designated into 2 groups, and administered by oral gavage or intravenous injection (i.v.) (oral gavage at a dosage of 30 mg/kg with an administration volume of 5 ml/kg, and i.v. at a dosage of 5 mg/kg with an administration volume of 2 ml/kg) after fasting overnight.
0.2 ml of blood was sampled before and 5 minutes, 0.25, 0.5, 1, 2, 4, 8, 11, 24 hours after intravenous administration, collected in a heparinized test tube, and centrifuged at 3500 rpm for 10 minutes to separate the plasma, which was stored at −20° C. Blood was sampled before, and 0.5, 1, 2, 4, 6, 8, 11, and 24 hours after oral administration, and treated the same as that of the intravenous administration group. The content of the test compound in the plasma of rabbits after administration of the compound by oral gavage and intravenous injection was determined by LC/MS/MS.

[3] = In vivo pharmacodynamics test in rabbit endometriosis model; settings: female, New Zealand, rabbit, in vivo, po
Experimental: (§1) Fifteen (15) healthy New Zealand rabbits (female) were evenly designated into 3 groups.
(§2) Rabbits were adaptive fed and quarantined for seven days, and subcutaneously injected with 30 μg/kg of estradiol benzoate once daily for two days before surgery. When the model was established, rabbits were anesthetized with 3% sodium pentobarbital, and laparotomized sterilely. Then, one side of the uterus was separated and ligated with the uterine mesorectum vessel. Then, a section of the uterus was cut off and put into a warm saline dish, and then dissected longitudinally and the myometrium and endometrium were separated. A section of endometrium (about 0.5 cm by0.5 cm) was seamed to the abdominal wall rich in blood vessels with the intimal surface facing toward the abdominal cavity. Three weeks after endometrium planting, the rabbits were laparotomized to check graft intimal size. […] Each group was administered by oral gavage once a day in a volume of 5 ml/kg, continuously for 28 days after successful modeling. Ultimately, the rabbit was weighed and the volume of ectopic endometrium was measured to evaluate the effect of the present compound on the endometrial activity.

[4] = tested on: rabbit endometriosis model; assay: as above
Experimental: as §1, §2

[5] = molecular target: human GnRHr (Homo sapiens (Human), UniProt P30968); assay: Human GnRHr (GnRH receptor) activity assay, Fluo-4 calcium signal in Human GnRHr/CHO stably transfected cell lines; format: cell-based; settings: Human GnRHr/CHO cells, GnRH polypeptide stimulant
Experimental: Test Example 1. Human GnRHr (GnRH Receptor) Activity Assay of the Present Compounds.
In vitro GnRHr protein activity was tested by the following methods.
This assay was used to determine the inhibition effect of the present compound on the activity of human GnRHr protein expressed by Human GnRHr/CHO stably transfected cell lines.
A mammalian expression vector containing the human GnRHr gene was transferred into CHO cells by adding Lipofectamine® LTX reagent containing Plus™. Antibiotics were added the next day for screening to pick out the monoclonal cell lines.
The Human GnRHr/CHO stably transfected cell lines were inoculated in 96-well plates with an inoculation density of 25,000 cells/well. The culture medium was removed the next day, and loading buffer containing Fluo-4 dye was added to the plate (100 μL/well) and incubated for 30 minutes at 37° C. The plate was moved to room temperature and equilibrated for 10 minutes. Each compound was diluted with DMSO to seven concentration gradients of 100 μM, 10 μM, 1 μM, 0.1 μM, 0.01 μM, 0.001 μM, 0.0001 μM. Then, 1 μl of each gradient was added to each well and incubated for 10 minutes at room temperature. After automated addition of 50 μL of GnRH polypeptide stimulant solution, the value was immediately detected at 494/516 […] by a microplate reader (flexstation 3). IC50 values of the compounds were calculated by software from different fluorescence signals at various corresponding concentrations.
The inhibitory activity of the present compounds on human GnRHr was determined by the above assay, and IC50 values are shown in Table 1.

[6] = both sexes, dog, plasma, iv, i.v. 2 mg/kg
[7] = both sexes, dog, plasma, oral 5 mg/kg
[8] = female, New Zealand, plasma, intravenous injection 5 mg/kg
[9] = female, New Zealand, plasma, oral 30 mg/kg

human GnRHr, sequence (P30968 whole entry): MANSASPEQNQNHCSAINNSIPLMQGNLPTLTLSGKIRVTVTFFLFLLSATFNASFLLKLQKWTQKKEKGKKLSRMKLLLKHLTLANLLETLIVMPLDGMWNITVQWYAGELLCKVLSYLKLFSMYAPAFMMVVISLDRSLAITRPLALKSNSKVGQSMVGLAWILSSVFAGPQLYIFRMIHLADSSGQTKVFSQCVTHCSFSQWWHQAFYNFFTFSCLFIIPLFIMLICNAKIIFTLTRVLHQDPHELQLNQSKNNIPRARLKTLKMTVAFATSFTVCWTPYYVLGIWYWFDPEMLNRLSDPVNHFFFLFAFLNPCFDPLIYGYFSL

Work on CONC(=O)Nc1ccc(-n2nc3c(c2CN(C)C)c(=O)n(-c2ccc(OC)nn2)c(=O)n3Cc2c(F)cccc2F)cc1 [Example 11, 1-(4-(7-(2,6-difluorobenzyl)-3-((dimethylamino)methyl)-5-(6-methoxypyridazin-3-yl)-4,6-dioxo-4,5,6,7-tetrahydro-2H-pyrazolo[3,4-d]pyrimidin-2-yl)phenyl)-3-methoxyurea] yielded an AUC [1, 6] of 2300 ± 213 ng·h/mL, a half-life [1, 6] of 3.34 ± 0.4 h and an MRT [1, 6] of 4.02 ± 0.5 h. For the same compound, the Vd/F ([1]; both sexes, dog, plasma, oral 5 mg/kg, read-out: Apparent volume of distribution Vz/F) was 7.25 ± 4.37 L/kg, the AUC [1, 7] was 5940 ± 1340 ng·h/mL and the CL/F ([1]; both sexes, dog, plasma, oral 5 mg/kg, read-out: Clearance rate CL/F) was 14.7 ± 4.2 mL/min/kg. For the same compound, the half-life [1, 7] was 5.37 ± 1.52 h, the Cmax ([1]; both sexes, dog, plasma, oral 5 mg/kg, read-out: Plasma concentration Cmax) was 1090 ± 350 ng/mL and the MRT [1, 7] was 6.4 ± 2.82 h. The “Apparent volume of distribution Vz/F” value ([1]; i.v. 2 mg/kg) was 4.235 ± 0.706 L/kg, the “Clearance rate CL/F” value ([1]; i.v. 2 mg/kg) was 14.6 ± 1.3 mL/min/kg and the AUC [2, 8] was 3410 ± 832 ng·h/mL. The half-life [2, 8] was 4.6 ± 2.7 h, the MRT [2, 8] was 2.39 ± 0.3 h and the Vd/F ([2]; female, New Zealand, plasma, oral 30 mg/kg, read-out: Apparent volume of distribution Vz/F) was 10.7 ± 3.86 L/kg. It also gave an AUC [2, 9] of 19000 ± 2310 ng·h/mL, a CL/F ([2]; female, New Zealand, plasma, oral 30 mg/kg, read-out: Clearance rate CL/F) of 26.6 ± 3.4 mL/min/kg and a half-life [2, 9] of 4.57 ± 1.06 h. The Cmax ([2]; female, New Zealand, plasma, oral 30 mg/kg, read-out: Plasma concentration Cmax) was 5040 ± 776 ng/mL, the MRT [2, 9] was 3.94 ± 0.55 h and the “Apparent volume of distribution Vz/F” value ([2]; intravenous injection 5 mg/kg) was 10.948 ± 7.749 L/kg. For the same compound, the “Clearance rate CL/F” value ([2]; intravenous injection 5 mg/kg) was 25.3 ± 5.5 mL/min/kg, the NOAEL at 28 days [3] was 30 mg/kg and the “inhibition for the ectopic endometrial volume” value ([4]; 10 mg/kg oral once a day for 4 weeks) was “not obvious”. For the same compound, the “growth of ectopic endometrium” value ([4]; 30 mg/kg oral once a day for 4 weeks, vs 0.5% CMC-Na control) was “significantly inhibited” and the IC50 [5] was 4.95 nM.
